Experimental data published in patent US3953442A (priority 1972, dated 1976).
Like-named read-outs stand apart in the source and are kept apart here.

Tests used:
central nervous system = assay: animal or person; type: in vivo; conditions: Mus musculus, read-out: Spontaneous pattern of activity (table head: LD50 in mg/kg)
[1] = Acute toxicity (LD50) in the mouse; conditions: in vivo
Experimental: The compounds of the present invention are not very toxic. By way of example, with the mouse, the dose which causes the death of 50 % of the animals or (LD50) is about 400 mg/kg bodyweight by oral and sub-cutaneous administration in the case of 5862.

visceral pain = assay: Analgesic effect, acetic acid induced visceral pain in the mouse (Koster and Anderson test); type: in vivo; conditions: oral, 30 min before acetic acid injection, 50% effective dose
Experimental: The compounds (I) are analgesic agents.
A visceral pain is induced in the mouse by intraperitonal injection of a dilute solution of acetic acid (Koster and Anderson test).
The animals, which are starved on the day before the experiment and separated into random batches of 5, are treated with the products under test thirty minutes before injection of the irritant. Treatment was always performed orally.
After the acetic acid solution is injected the animals show symptoms of pain (stretching of the abdomen with extension of the back feet) which are counted during two spells of 5 minutes for each lot: from the fifth to the tenth minute and from the fifteenth to the twentieth minute respectively after the acid is injected
The ED50 value is expressed in mg kg bodyweight

SMILES | ED50 (central nervous system; ip) [mg/kg] | ED50 (visceral pain) [mg/kg] | also measured
CC(Cc1cn(-c2ccccc2)c2ccc(F)cc12)N1CCCC1 (centres unmarked) [compound 6116] | 0.25 | – | LD50 ([1]; sc, sub-cutaneous): > 1000 mg/kg
CC(Cc1cn(-c2ccc(F)cc2)c2ccccc12)N1CCCC1.Cl (centres unmarked) [compound 5862, 3-(2-pyrrolidinopropyl)-1-(4-fluorophenyl)indole hydrochloride] | 0.4 | 3.12 | LD50 ([1]; oral): ~400 mg/kg; LD50 ([1]; sc, sub-cutaneous): ~400 mg/kg
CC(Cc1cn(-c2ccc(Cl)cc2)c2ccc(F)cc12)N(C)C (centres unmarked) [compound 6264] | 20 | – | –
CNC(C)Cc1cn(-c2ccc(Cl)cc2)c2ccccc12 (centres unmarked) [compound 5859] | 5 | – | –
CC(Cc1cn(-c2ccc(Cl)cc2)c2ccccc12)N(C)C (centres unmarked) [compound 5860] | 5 | 25 | –
CNC(C)Cc1cn(-c2ccccc2)c2ccccc12 (centres unmarked) [compound 5479] | 2.5 | – | ED50 (central nervous system; po): 25 mg/kg
CC(Cc1cn(-c2ccc(F)cc2)c2ccc(Cl)cc12)N1CCCC1 (centres unmarked) [compound 6112, 5-chloro-1-(4-fluorophenyl)-3-(2-pyrrolidinopropyl)indole] | 0.4 | 0.75 | LD50 ([1]; oral): > 800 mg/kg; LD50 ([1]; sc, sub-cutaneous): 400 to 800 mg/kg
COc1ccc(-n2cc(CC(C)N3CCCC3)c3ccccc32)cc1 (centres unmarked) [compound 5775] | 1 | 25 | –
CC(Cc1cn(-c2ccccc2F)c2ccccc12)N1CCCC1 (centres unmarked) [compound 5988] | 5 | 12.5 | –
CNC(C)Cc1cn(-c2ccccc2Cl)c2ccccc12 (centres unmarked) [compound 6051] | 5 | 50 | –
CC(Cc1cn(-c2ccccc2)c2ccccc12)N(C)C (centres unmarked) [compound 5483] | 5 | 12.5 | ED50 (central nervous system; po): 25 mg/kg
CC(Cc1cn(-c2ccc(F)cc2)c2ccc(F)cc12)N(C)C (centres unmarked) [compound 6269] | 6.25 | 6.25 | –
CC(Cc1cn(-c2ccccc2)c2ccc(F)cc12)N(C)C (centres unmarked) [compound 6265] | 20 | – | –
CC(Cc1cn(-c2ccccc2)c2ccccc12)N1CCCCC1 (centres unmarked) [compound 5478] | 12.5 | 12.5 | –
CC(Cc1cn(-c2ccccc2Cl)c2ccccc12)N1CCCC1 (centres unmarked) [compound 5984] | 0.25 | – | ED50 (central nervous system; po): 10 mg/kg
COc1ccc2c(c1)c(CC(C)N(C)C)cn2-c1ccccc1 (centres unmarked) [compound 6271] | 12.5 | – | –
CC(Cc1cn(-c2ccccc2)c2ccccc12)N1CCCC1 (centres unmarked) [compound 5480] | 2.5 | – | ED50 (central nervous system; po): 12.5 mg/kg
CC(Cc1cn(-c2ccccc2)c2ccccc12)N1CCOCC1 (centres unmarked) [compound 5481] | 2.5 | 12.5 | –
CC(Cc1cn(-c2ccccn2)c2ccccc12)N(C)C (centres unmarked) [compound 6099] | 50 | – | –
CC(Cc1cn(-c2ccc(F)cc2)c2ccc(F)cc12)N1CCCC1 (centres unmarked) [compound 6250] | 0.8 | – | ED50 (central nervous system; po): 3.12 mg/kg

SMILES | ED50 (central nervous system; ip) [mg/kg] | ED50 (visceral pain) [mg/kg] | also measured
CC(N)Cc1cn(-c2ccc(F)cc2)c2ccccc12 (centres unmarked) [compound 6254] | 80 | – | –
CC(Cc1cn(-c2ccc(Cl)cc2)c2ccc(F)cc12)N1CCCC1 (centres unmarked) [compound 6251] | 9 | 12.5 | ED50 (central nervous system; po): 25 mg/kg
CC(Cc1cn(-c2cccnc2)c2ccccc12)N(C)C (centres unmarked) [compound 6097] | 10 | – | –
CC(Cc1cn(-c2ccccc2Cl)c2ccccc12)N(C)C (centres unmarked) [compound 5987] | 6 | 12.5 | ED50 (central nervous system; po): 6.25 mg/kg
COc1ccc(-n2cc(CC(C)N3CCOCC3)c3ccccc32)cc1 (centres unmarked) [compound 5777] | 25 | – | –
CNC(C)Cc1cn(-c2ccc(OC)cc2)c2ccccc12 (centres unmarked) [compound 5772] | 25 | – | –
CNC(C)Cc1cn(-c2ccccn2)c2ccccc12 (centres unmarked) [compound 6104] | 25 | – | –
CNC(C)Cc1cn(-c2ccccc2F)c2ccccc12 (centres unmarked) [compound 6050] | 12.5 | – | –
COc1ccc(-n2cc(CC(C)NC(C)C)c3ccccc32)cc1 (centres unmarked) [compound 5774, 1-(4-methoxyphenyl)-3-(2-isopropylaminopropyl)indole] | 12.5 | – | –
CC(Cc1cn(-c2ccc(F)cc2)c2ccccc12)N(C)C (centres unmarked) [compound 5864] | 2 | 3.12 | –
CC(Cc1cn(-c2ccccn2)c2ccccc12)N1CCCC1 (centres unmarked) [compound 6102] | 12.5 | – | –
CNC(C)Cc1cn(-c2ccc(N)cc2)c2ccccc12 (centres unmarked) [compound 5935] | 2.5 | – | –
CC(Cc1cn(-c2ccc(F)cc2)c2ccc(Cl)cc12)N(C)C (centres unmarked) [compound 6268] | 6.25 | – | –
COc1ccc(-n2cc(CC(C)N(C)C)c3ccccc32)cc1 (centres unmarked) [compound 5773] | 1.25 | 12.5 | ED50 (central nervous system; po): 40 mg/kg
CNC(C)Cc1cn(-c2ccc(F)cc2)c2ccccc12 (centres unmarked) [compound 5863] | 2 | 6.25 | –
COc1ccc2c(c1)c(CC(C)N1CCCC1)cn2-c1ccccc1 (centres unmarked) [compound 6066] | 10 | – | –
CC(Cc1cn(-c2ccc(Cl)cc2)c2ccccc12)N1CCCC1 (centres unmarked) [compound 5861] | – | 25 | –
COc1ccc(-n2cc(CC(C)N3CCCCC3)c3ccccc32)cc1 (centres unmarked) [compound 5776] | 5 | – | ED50 (central nervous system; po): 35 mg/kg
COc1ccc2c(c1)c(CC(C)N1CCCC1)cn2-c1ccc(F)cc1 (centres unmarked) [compound 6270] | 3.12 | – | –
